# Data: patent publication US7901498B2, “Trisazo compound, ink composition, printing method and colored product” (Nippon Kayaku Kabushiki Kaisha, priority 2007, dated 2011)
# Tests used:
# [1] = Ozone gas fastness test of inkjet-printed images (coloring matter residual rate); assay type: physicochemical; conditions: 24 hours, ozone 10 ppm; for Ozone gas fastness: 60% RH, 24° C.
# Procedure: (§1) The components described below were mixed to obtain a black ink composition of the present invention, and then foreign substances were filtered off using a 0.45 μm membrane filter. Hereinafter, the obtained ink composition was referred to as “ink”.
# (§2) In addition, ion-exchanged water was used as water. In ink preparation, the pH of ink was adjusted to pH 7 to 9 with sodium hydroxide and after that, ion-exchanged water was added to make the total amount 100 parts.
# (§3) Using each ink obtained in the above manner, inkjet printing was performed on three kinds of information recording sheet (inkjet special paper), glossy paper 1 [trade name: Professional Photopaper PR-101, manufactured by Canon Inc.], glossy paper 2 [trade name: Photo Paper CRISPIA (highly glossy), manufactured by Seiko-Epson Corporation], glossy paper 3 [trade name: Advanced Photo Paper (glossy), manufactured by Hewlett-Packard Development Company] by an inkjet printer (trade name: PIXUS® iP4100) manufactured by Canon Inc.
# (§4) In printing, an image pattern was made so that several gradations in reflection density were obtained, and black printed matter was obtained.
# (§5) Using a colorimeter (trade name: SpectroEye®) manufactured by GRETAG-MACBETH, change in printed image density was measured by measuring, after the test, the gradation part where the reflection density, D value, was nearest to 1.0 on each printed image before the test.
# Using an ozone weatherometer manufactured by Suga Test Instruments Co., Ltd., each printed image was left for 24 hours under the conditions of an ozone concentration of 10 ppm, a humidity of 60% RH and a temperature of 24° C. After completion of the test, each printed image was measured by the above colorimeter and the coloring matter residual rate was calculated from the formula (reflection density after test/reflection density before test)×100 (%). The test results are evaluated according to the following criteria. • ◯: Residual rate is 70% or more. • Δ: Residual rate is 60% or more and less than 70%. • ×: Residual rate is less than 60%. 2) Light Fastness Test
# [2] = Light fastness test of inkjet-printed images, xenon weatherometer (coloring matter residual rate); assay type: physicochemical; conditions: for Light fastness: 96 hours, illuminance 100,000 lux, 60% RH, 24° C.; for coloring matter residual rate, light fastness test: 96 hours xenon
# Procedure: as §1, §2, §3, §4, §5
# Using a low temperature xenon weatherometer (trade name: XL75) manufactured by Suga Test Instruments Co., Ltd., each printed image described above was irradiated for 96 hours under the conditions of a luxilluminance of 100,000, a humidity of 60% RH and a temperature of 24° C. and then measured using the above colorimeter, and the coloring matter residual rate of each image was calculated from the formula (reflection density after test/reflection density before test)×100 (%). The test results are evaluated according to the following criteria. • ◯: Residual rate is 85% or more. • Δ: Residual rate is 80% or more and less than 85%. • ×: Residual rate is less than 80%.
# [3] = Glossy paper 1 (Professional Photopaper PR-101, Canon)
# [4] = Glossy paper 2 (Photo Paper CRISPIA, Seiko-Epson)
# [5] = Glossy paper 3 (Advanced Photo Paper, Hewlett-Packard)
"Ozone gas fastness [1, 3]","Ozone gas fastness [1, 4]","Ozone gas fastness [1, 5]","Light fastness [2, 3]","Light fastness [2, 4]","Light fastness [2, 5]","coloring matter residual rate, ozone gas fastness test ([1]; on any glossy paper (1, 2, 3))","coloring matter residual rate, light fastness test ([2]; glossy paper 1)","coloring matter residual rate, light fastness test ([2]; glossy paper 2)",Compound
◯ (Residual rate is 70% or more.),◯ (Residual rate is 70% or more.),◯ (Residual rate is 70% or more.),◯ (Residual rate is 85% or more.),◯ (Residual rate is 85% or more.),◯ (Residual rate is 85% or more.),,,,CS(=O)(=O)O.Cc1cc(N=Nc2c(S(=O)(=O)O)cc3c(S(=O)(=O)O)c(N=Nc4c(C)c(C#N)c5nc6ccccc6n5c4O)ccc3c2O)c(OCCCS(=O)(=O)O)cc1N=Nc1nc2c(S(=O)(=O)O)cc(S(C)(=O)=O)cc2s1 [Example 14]

Compound,"Ozone gas fastness [1, 3]","Ozone gas fastness [1, 4]","Ozone gas fastness [1, 5]","Light fastness [2, 3]","Light fastness [2, 4]","Light fastness [2, 5]","coloring matter residual rate, ozone gas fastness test ([1]; on any glossy paper (1, 2, 3))","coloring matter residual rate, light fastness test ([2]; glossy paper 1)","coloring matter residual rate, light fastness test ([2]; glossy paper 2)"
CS(=O)(=O)O.Cc1cc(N=Nc2c(S(=O)(=O)O)cc3c(S(=O)(=O)O)c(N=Nc4c(C)c(C#N)c5nc6ccccc6n5c4O)ccc3c2O)c(OCCCS(=O)(=O)O)cc1N=Nc1nnc(SCCS(=O)(=O)O)s1 [Example 10],◯ (Residual rate is 70% or more.),◯ (Residual rate is 70% or more.),◯ (Residual rate is 70% or more.),◯ (Residual rate is 85% or more.),Δ (Residual rate is 80% or more and less than 85%.),◯ (Residual rate is 85% or more.),,,
CS(=O)(=O)O.Cc1cc(N=Nc2c(S(=O)(=O)O)cc3c(S(=O)(=O)O)c(N=Nc4c(C)c(C#N)c5nc6ccccc6n5c4O)ccc3c2O)c(OCCCS(=O)(=O)O)cc1N=Nc1nc2c(S(=O)(=O)O)cc(S(=O)(=O)O)cc2s1 [Example 13],◯ (Residual rate is 70% or more.),◯ (Residual rate is 70% or more.),◯ (Residual rate is 70% or more.),Δ (Residual rate is 80% or more and less than 85%.),◯ (Residual rate is 85% or more.),◯ (Residual rate is 85% or more.),,,
"O=C(O)c1cc(S(=O)(=O)O)ccc1N=Nc1cc(OCCO)c(N=Nc2c(S(=O)(=O)O)cc3c(S(=O)(=O)O)c(N=Nc4c(C(=O)O)nn(-c5ccc(S(=O)(=O)O)cc5)c4O)ccc3c2O)cc1OCCO [Comparative Example 1, reference compound]",,,,,,Δ (Residual rate is 80% or more and less than 85%.),less than 60%,less than 80%,less than 80%
